Like-named read-outs stand apart in the source and are kept apart here.
Key:
Type in all cases: cell-based, rat
fibronectin = test: Real-time RT-PCR of fibronectin mRNA in HSC T6 cells; details: for suppression of fibronectin mRNA: DPIM 2 mM, TMPHIM 50 μM, DBZIM 100 μM
Method: (§1) FIG. 6. (a) DBZIM and (b) TDBZIM suppressed the mRNA expression of HSC activation markers (GFAP and SMAA) and fibrotic endpoints (col1a1 and fibronectin) in a dosage-dependent manner. […] The ΔΔCt method was used for relative quantification with vehicle control sample being the calibrator. The data were presented as mean and SEM, N=6, *^aP<0.05, *^bP<0.01, *^cP<0.005, and *^dP<0.0005, when compared to the vehicle control. FIG. 7. DBZIM (100 μM) and TDBZIM (100 μM) suppressed (a) GFAP, (b) SMAA, (c) col1a1 and (d) fibronectin mRNA expression in a time-dependent manner. HSC T6 cells were treated with DBZIM and TDBZIM, and assayed after 8, 24 and 48 h. […] FIG. 14. […] (50 μM), […] (50 μM), […] (10 μM) and DBZBIM (100 μM) were dissolved in DMSO with a final DMSO concentration of 0.2% (v/v). DPIM (2 mM), EGCG (25 μM) and DBZIM (100 μM) were dissolved in H2O. β-actin was used as the normalization gene; its expression was constant under the experimental conditions. Relative quantification was normalized against the respective vehicle control. The data were presented as mean and SEM, N=6, *^aP<0.05, *^cP<0.005, and *^dP<0.0005, when compared to the vehicle control. Total RNA was isolated using NucleoSpin RNAII isolation kit ([…], Germany), and quantified by ND-100 spectrophotometer (Nanodrop Technologies, DE, USA). The details of real-time RT-PCR were reported elsewhere (Zhang et al. 2006). Briefly, it was a two-step real-time RT-PCR using Taqman chemistry. Total RNA was first reverse transcribed to cDNA, and real-time PCR was run and detected in ABI 7500 Fast Real-Time PCR System (Applied Biosystems, CA, USA). Primers and probes for rat GFAP, SMAA, collagen Ia1, fibronectin, TGF-β1, TGF-β receptor I (TGFβ RI) and IL-6 were ordered from Taqman's assay-on-demand database. Rat β-actin was used as normalization gene, and its expression level was constant (CT difference was <±0.5) throughout the experimental settings in this study. Relative quantification of target mRNA was calculated using comparative threshold cycle method (ΔΔCT) as described in User Bulletin #2 (ABI Prism 7700 Sequence Detection System). Relative quantification was given by 2^-ΔΔCT to express the up-regulation or down regulation of the target gene under the treatments compared to the control.

HSC T6 cells = test: MTS based proliferation assay (cytotoxicity) on cultured HSC-T6 cells; details: for IC50: read-out: IC50 (toxicity on T6 cells); for inhibition of cell proliferation: 48 h, 10% FBS DMEM
Method: FIG. 1. Cytotoxicity of (a) DBZIM and (b) TDBZIM. […] The signal was normalized against a vehicle control treatment (0 μM of compound). The data were obtained from four independent experiments, and presented as mean and standard error or mean (SEM), *^aP<0.05, *^bP<0.01 and *^cP<0.005.
Firstly we assessed the cytotoxicity of DBZIM and TDBZIM on cultured HSC-T6 cells using a 3-(4,5-dimethylthiazol-2-yl)-5-(3-carboxymethoxyphenyl)-2-(4-sulfophenyl)-2H-tetrazolium (MTS) based proliferation assay kit (Promega, Wis., USA). […]

SOD = test: Superoxide dismutase (SOD) activity assay in treated cells; details: HSC T6 cells, 48 h
Method: FIG. 4. Effect of DBZIM and TDBZIM on GPx, CAT, SOD and GST. DBZIM affected (a) GPx activity and (c) CAT activity in a dosage-dependent manner. TDBZIM suppressed (b) GPx activity and (d) CAT activity. (e) DBZIM and (f) TDBZIM had little effect on SOD activity. (g) DBZIM induced GST activity. HSC T6 cells were treated with compounds of various concentrations for 48 h, and homogenized by sonication (60% frequency for 30 s) in PBS (pH 7.4, 1 mM of EDTA) for GPx, GST and CAT assays, or in 20 mM of HEPES buffer containing 1 mM of EGTA, 210 mM of mannitol and 70 mM of sucrose (pH 7.2) for SOD assay. Enzyme activity was normalized against total protein. DBZIM was dissolved in DMSO, and TDBZIM was dissolved in H2O. The data were presented as mean and SEM, N=6, *^aP<0.05, *^bP<0.01, *^cP<0.005, and *^dP<0.0005, when compared to the vehicle control.
Activity levels of three anti-oxidant enzymes, GPx, CAT and SOD, were determined using assay kits from Cayman Chemical. To assay GPx and CAT activities, protein samples were harvested in ice-cold PBS containing 1 mM of EDTA. To assay SOD activity, protein samples were prepared in 20 mM of N-(2-hydroxyethyl)-piperazine-N′-2-ethanesulfonic acid (HEPES) buffer containing 1 mM of ethylene glycol-bis(2-aminoethylether)-N,N,N′,N′-tetraacetic acid (EGTA), 210 mM of mannitol and 70 mM of sucrose. Protein content was determined by BCA assay.
Total SOD, including all three types of SOD (Cu/Zn-, Mn- and Fe-SOD), was quantified using a tetrazolium salt to detect superoxide radicals generated by xanthine oxidase and hyposanthine. […] SOD activity was expressed as U/mg protein.

GFAP = test: Real-time RT-PCR of GFAP mRNA in HSC T6 cells
Method: as §1

col1a1 = test: Real-time RT-PCR of col1a1 mRNA in HSC T6 cells
Method: as §1

CAT = test: Catalase (CAT) activity assay in treated cells; details: for attenuation of CAT activity: 48 h
Method: FIG. 4. […] Enzyme activity was normalized against total protein. DBZIM was dissolved in DMSO, and TDBZIM was dissolved in H2O. The data were presented as mean and SEM, N=6, *^aP<0.05, *^bP<0.01, *^cP<0.005, and *^dP<0.0005, when compared to the vehicle control.
Activity levels of three anti-oxidant enzymes, GPx, CAT and SOD, were determined using assay kits from Cayman Chemical. To assay GPx and CAT activities, protein samples were harvested in ice-cold PBS containing 1 mM of EDTA. […] Protein content was determined by BCA assay.
CAT activity was determined based on reaction of the enzyme with methanol in the presence of H2O2. The formaldehyde produced was measured spectrophotometrically at 540 nm using Purpald as the chromogen. CAT activity was expressed as nmol/min/mg protein.

SMAA = test: Real-time RT-PCR of SMAA mRNA in HSC T6 cells; details: for change of SMAA mRNA: 8 h
Method: as §1

[1] = Rattus norvegicus, HSC-T6, HSC T6 cells

Row | Molecule | decrease of fibronectin mRNA (fibronectin; 1 μM, 48 h) [%] | decrease of fibronectin mRNA (fibronectin; 100 μM, 8 h) [%] | decrease of fibronectin mRNA (fibronectin; 100 μM, 24 h) [%] | decrease of fibronectin mRNA (fibronectin; 100 μM, 48 h) [%] | effect on SOD activity (SOD) | decrease of GFAP mRNA (GFAP; 10 μM, 48 h) [%] | decrease of GFAP mRNA (GFAP; 100 μM, 8 h) [%] | decrease of GFAP mRNA (GFAP; 100 μM, 24 h) [%] | decrease of GFAP mRNA (GFAP; 100 μM, 48 h) [%] | decrease of col1a1 mRNA (col1a1; 100 μM, 8 h) [%] | decrease of col1a1 mRNA (col1a1; 100 μM, 24 h) [%] | decrease of col1a1 mRNA (col1a1; 100 μM, 48 h) [%] | attenuation of CAT activity (CAT; 10 μM) [%] | attenuation of CAT activity (CAT; 50 μM) [%] | attenuation of CAT activity (CAT; 100 μM) [%] | change of SMAA mRNA (SMAA; 100 μM) | suppression of fibronectin mRNA (fibronectin; 48 h) [%] | IC50 (HSC T6 cells; [1]) [µM] | also measured
1 | 1,3,5-tris(4-methyl-imidazolium)-linked cyclophane.3Br [TDBZIM] | 32 | 25 | 29 | 43 | did not show much effect | 20 | 30 | 36 | 60 | 22 | 40 | 53 | 25 | 31 | 20 | no change |  |  | decrease of fibronectin mRNA (fibronectin; 10 μM, 48 h): 28%; IC50 (HSC T6 cells; HSC T6 cells): ~500 µM; inhibition of cell proliferation (HSC T6 cells; TDBZIM 125-200 μM): 13-19%; decrease of GFAP mRNA (GFAP; 1 μM, 48 h): 32%; decrease of col1a1 mRNA (col1a1; 1 μM, 48 h): 39%; decrease of col1a1 mRNA (col1a1; 10 μM, 48 h): 36%; decrease of SMAA mRNA (SMAA; 1 μM, 48 h): 27%; transient induction of SMAA mRNA (SMAA; 100 μM, 24 h): up to 79%
2 | [Br-].c1ccc(Cn2cc[n+](Cc3ccccc3)c2)cc1 [DBZIM, 1,3-bisbenzylimidazolium bromide] | 19 | 15 | 17 | 25 | did not show much effect | 18 | 28 | 40 | 56 | 22 | 29 | 21 | 19 | 16 | 12 | no change | 26 | 1700 | decrease of fibronectin mRNA (fibronectin; 300 μM, 48 h): 40%; inhibition of cell proliferation (HSC T6 cells; DBZIM 250-400 μM): 3.5-8.9%; decrease of GFAP mRNA (GFAP; 300 μM, 48 h): 86%; decrease of col1a1 mRNA (col1a1; 300 μM, 48 h): 44%; attenuation of CAT activity (CAT; 300 μM, without statistical significance): 8%; decrease of SMAA mRNA (SMAA; 100 μM, 48 h): 21%; decrease of SMAA mRNA (SMAA; 300 μM, 48 h): 58%
3 | CC(C)n1cc[n+](C(C)C)c1.F[B-](F)(F)F [DPIM, 1,3-diisopropylimidazolium tetrafluoroborate] |  |  |  |  |  |  |  |  |  |  |  |  |  |  |  |  | 48 | 3100 | suppression of GFAP mRNA (GFAP; 48 h, DPIM 2 mM, AMIM 50 μM, TMPHIM 50 μM, DBZBIM 100 μM): 78%; suppression of col1a1 mRNA (col1a1; 48 h, DBIM 1 mM, DPIM 2 mM, TMPHIM 50 μM, DPPHIM 10 μM): 61%; suppression of SMAA mRNA (SMAA; 48 h, DBIM 1 mM, DPIM 2 mM, AMIM 50 μM, TMPHIM 50 μM): 78%
4 | (−)-Epigallocatechin gallate [EGCG, reference compound] |  |  |  |  | did not show much effect |  |  |  |  |  |  |  |  |  |  |  |  |  | inhibition on HSC activation and fibrosis (GFAP, SMAA, fibronectin, col1a1 mRNA) (GFAP; EGCG 25 μM, 48 h): did not show significant inhibition; suppression of CAT activity (references) (CAT; EGCG, NAC (FIG. 4c)): 13%

Reference: patent publication US9072729B2, “Method for treating fibrosis and cancer with imidazolium and imidazolinium compounds” (Agency for Science, Technology and Research, priority 2008, dated 2015)
